Test results from ChEMBL document CHEMBL4359818, “Targeting dihydrofolate reductase: Design, synthesis and biological evaluation of novel 6-substituted pyrrolo[2,3-d]pyrimidines as nonclassical antifolates and as potential antitumor agents” (Eur J Med Chem, 2019).
The source made the active and inactive calls. No cut-off for these calls is given here.

Assays:
[1] = molecular target: T1, Dihydrofolate reductase (Homo sapiens) (UniProt P00374); assay: Potency index, ratio of IC50 for methotrexate to test compound IC50 for inhibition of recombinant human DHFR
T1 sequence (whole entry): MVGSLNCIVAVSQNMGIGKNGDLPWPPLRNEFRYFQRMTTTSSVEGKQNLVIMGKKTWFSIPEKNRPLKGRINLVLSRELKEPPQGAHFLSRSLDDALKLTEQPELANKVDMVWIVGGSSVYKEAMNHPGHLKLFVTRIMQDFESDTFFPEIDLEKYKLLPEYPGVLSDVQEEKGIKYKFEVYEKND

KB [2] = assay: Antiproliferative activity against human KB cells assessed as reduction in cell viability after 72 hrs by MTT assay; assay type: functional, cell-based
A549 [3] = assay: cells; conditions: Homo sapiens, A549, 72 h
Description: Antiproliferative activity against human A549 cells assessed as reduction in cell viability after 72 hrs by MTT assay

KB [4] = assay: Inhibition of colony formation in human KB cells at 100 nM after 10 to 14 days by methylene blue staining based assay; assay type: functional, cell-based
Dihydrofolate reductase = molecular target: T2, Dihydrofolate reductase (Homo sapiens, UniProt P00374); assay: Inhibition of recombinant human DHFR using dihydrofolic acid as substrate in presence of NADPH after 15 mins by microplate reader analysis
T2 sequence (P00374 whole entry): T1 sequence (whole entry)

SW-620 [5] = assay: Antiproliferative activity against human SW620 cells assessed as reduction in cell viability after 72 hrs by MTT assay; assay type: functional, cell-based; conditions: SW-620, 72 h
KB [6] = assay: Antiproliferative activity against human KB cells in presence of adenosine; assay type: functional, cell-based
HUVEC = assay: Cytotoxicity against HUVEC assessed as reduction in cell viability after 72 hrs by MTT assay; assay type: cell-based; conditions: Homo sapiens
KB [7] = assay: Cell cycle arrest in human KB cells assessed as accumulation at S phase at 10 uM after 96 hrs by RNase-1 A/propidium iodide staining-based flow cytometric analysis (reference value: 48.26%); assay type: functional
KB [8] = assay: Cell cycle arrest in human KB cells assessed as accumulation at G2 phase at 10 uM after 96 hrs by RNase-1 A/propidium iodide staining-based flow cytometric analysis (reference value: 9.06%); assay type: functional
KB [9] = assay: Antiproliferative activity against human KB cells in presence of AICA and thymidine; assay type: functional, cell-based
KB [10] = assay: Cell cycle arrest in human KB cells assessed as accumulation at G1 phase at 10 uM after 96 hrs by RNase-1 A/propidium iodide staining-based flow cytometric analysis (reference value: 42.69%); assay type: functional
KB [11] = assay: Antiproliferative activity against human KB cells in presence of AICA; assay type: functional, cell-based
KB [12] = assay: Antiproliferative activity against human KB cells in presence of thymidine; assay type: functional, cell-based
KB [13] = assay: Antiproliferative activity against human KB cells at 0.01 to 1 uM in presence of adenosine; assay type: functional, cell-based
KB [14] = assay: Antiproliferative activity against human KB cells at 0.01 to 1 uM in presence of AICA; assay type: functional, cell-based
[15] = Selectivity index, ratio of IC50 for HUVEC to IC50 for human KB cells; assay type: toxicity; conditions: HUVEC and KB cells, read-out: Ratio IC50
KB [16] = assay: Antiproliferative activity against human KB cells at 0.01 to 1 uM in presence of thymidine; assay type: functional, cell-based
A549 [17] = assay: Potency index, ratio of IC50 for methotrexate to IC50 for test compound for antiproliferative activity against human A549 cells after 72 hrs by MTT assay; assay type: functional
SW-620 [18] = assay: Potency index, ratio of IC50 for pemetrexed to IC50 for test compound for antiproliferative activity against human SW620 cells after 72 hrs by MTT assay; assay type: functional
KB [19] = assay: Potency index, ratio of IC50 for pemetrexed to IC50 for test compound for antiproliferative activity against human KB cells after 72 hrs by MTT assay; assay type: functional
A549 [20] = assay: Potency index, ratio of IC50 for pemetrexed to IC50 for test compound for antiproliferative activity against human A549 cells after 72 hrs by MTT assay; assay type: functional
KB [21] = assay: Inhibition of colony formation in human KB cells at 100 nM after 10 to 14 days by methylene blue staining based assay relative to untreated control; assay type: functional
KB [22] = conditions: Homo sapiens, 10 nM
Description: Inhibition of colony formation in human KB cells at 10 nM after 10 to 14 days by methylene blue staining based assay

## Nc1nc2[nH]c(CCNC(=O)c3cccc(C(=O)NCc4ccccn4)c3)cc2c(=O)[nH]1
[1]
  Ratio IC50: 2.6
KB [2]
  IC50: 102 nM
A549 [3]
  IC50: ≥ 1000 nM
KB [4]
  inhibition: Active
Dihydrofolate reductase
  IC50: 9.28 nM
SW-620 [5]
  IC50: ≥ 1000 nM

## Nc1nc2[nH]c(CCNC(=O)c3cccc(C(=O)NCc4ccncc4)c3)cc2c(=O)[nH]1
KB [2]
  IC50: 25 nM
A549 [3]
  IC50: ≥ 1000 nM
KB [4]
  inhibition: Active
Dihydrofolate reductase
  IC50: 65.9 nM
SW-620 [5]
  IC50: 60.1 nM

## Nc1nc2[nH]c(CCNC(=O)c3ccccc3C(=O)NCc3cccnc3)cc2c(=O)[nH]1
KB [2]
  IC50: 56.5 nM
A549 [3]
  IC50: ≥ 1000 nM
KB [4]
  inhibition: Active
Dihydrofolate reductase
  IC50: ≥ 1000 nM
SW-620 [5]
  IC50: ≥ 1000 nM

## Nc1nc2[nH]cc(CCc3ccc(C(=O)N[C@@H](CCC(=O)O)C(=O)O)cc3)c2c(=O)[nH]1 [PEMETREXED]
KB [6]
  Activity: inactive
HUVEC
  IC50: 1730 nM
KB [7]
  Activity: 27.89%
KB [4]
  inhibition: Active
KB [8]
  Activity: 0%
KB [9]
  Activity: inactive
KB [10]
  Activity: 72.11%
SW-620 [5]
  IC50: 80.2 nM
KB [11]
  Activity: inactive
KB [12]
  Activity: inactive

## Nc1nc2[nH]c(CCNC(=O)c3ccc(C(=O)NCc4cccnc4)cc3)cc2c(=O)[nH]1
HUVEC
  IC50: 2970 nM
KB [13]
  Activity: Active
KB [7]
  Activity: 55.36%
KB [2]
  IC50: 11.2 nM
A549 [3]
  IC50: 12.4 nM
KB [4]
  inhibition: Active
KB [14]
  Activity: Active
[15]
  selectivity ratio: 265
Dihydrofolate reductase
  IC50: 37.9 nM
KB [8]
  Activity: 6.26%
KB [10]
  Activity: 38.38%
SW-620 [5]
  IC50: 13.1 nM
KB [16]
  Activity: Active

## Nc1nc2[nH]c(CCNC(=O)c3ccc(C(=O)NCc4ccncc4)cc3)cc2c(=O)[nH]1
A549 [17]
  Ratio IC50: 81
HUVEC
  IC50: 8830 nM
KB [13]
  Activity: Active
KB [7]
  Activity: 33.74%
KB [2]
  IC50: 10.2 nM
A549 [3]
  IC50: 12.1 nM
SW-620 [18]
  Ratio IC50: 7
KB [19]
  Ratio IC50: 7
KB [14]
  Activity: Active
[15]
  selectivity ratio: 867
Dihydrofolate reductase
  IC50: 49 nM
KB [8]
  Activity: 9.66%
KB [10]
  Activity: 56.59%
SW-620 [5]
  IC50: 15 nM
KB [16]
  Activity: Active
A549 [20]
  Ratio IC50: 104
KB [21]
  inhibition at 0.1 µM: 80%

## Nc1nc2[nH]c(CCNC(=O)c3ccccc3C(=O)NCc3ccncc3)cc2c(=O)[nH]1
KB [2]
  IC50: 89.9 nM
A549 [3]
  IC50: ≥ 1000 nM
KB [4]
  inhibition: Active
Dihydrofolate reductase
  IC50: ≥ 1000 nM
SW-620 [5]
  IC50: ≥ 1000 nM

## Nc1nc2[nH]c(CCNC(=O)c3ccccc3C(=O)NCc3ccccn3)cc2c(=O)[nH]1
KB [2]
  IC50: 90.5 nM
A549 [3]
  IC50: ≥ 1000 nM
KB [4]
  inhibition: Active
Dihydrofolate reductase
  IC50: ≥ 1000 nM
SW-620 [5]
  IC50: ≥ 1000 nM

## Nc1nc2[nH]c(CCNC(=O)c3ccc(C(=O)NCc4ccccn4)cc3)cc2c(=O)[nH]1
HUVEC
  IC50: 5930 nM
KB [13]
  Activity: Active
KB [7]
  Activity: 24.75%
KB [2]
  IC50: 23 nM
A549 [3]
  IC50: 18.9 nM
KB [4]
  inhibition: Active
KB [14]
  Activity: Active
[15]
  selectivity ratio: 257
Dihydrofolate reductase
  IC50: 29.3 nM
KB [8]
  Activity: 9.33%
KB [10]
  Activity: 65.92%
SW-620 [5]
  IC50: 15.2 nM
KB [16]
  Activity: Active

## CN(Cc1cnc2nc(N)nc(N)c2n1)c1ccc(C(=O)N[C@@H](CCC(=O)O)C(=O)O)cc1 [METHOTREXATE]
KB [22]
  inhibition: Active
HUVEC
  IC50: 6130 nM
SW-620 [5]
  IC50: 13.1 nM

## Nc1nc2[nH]c(CCNC(=O)c3cccc(C(=O)NCc4cccnc4)c3)cc2c(=O)[nH]1
KB [2]
  IC50: 88.8 nM
A549 [3]
  IC50: ≥ 1000 nM
KB [4]
  inhibition: Active
Dihydrofolate reductase
  IC50: 53.4 nM
SW-620 [5]
  IC50: 154 nM
